According to patent publication EP0979818A1, “BENZOIC ACID COMPOUNDS AND MEDICINAL USE THEREOF” (YOSHITOMI PHARMACEUTICAL INDUSTRIES, LTD., priority 1997, dated 1998):
Like-named read-outs stand apart in the source and are kept apart here. Values belong to the compound of their own block, whether it stands above or below them.

Tests used:
[1] = target: isolated guinea pig ascending colon (Cavia porcellus, UniProt O70528); experiment: contraction of the isolated guinea pig ascending colon; assay type: cell-based
Protocol: Male Hartley guinea pig was killed by a blow, ascending colon was taken from it and longitudinal muscle was separated. About 3 cm longitudinal muscle segment was suspended in 10 ml of a Tyrode solution with the load of 1 g. Tyrode solution contained methysergide (1 µM) and granisetron (1 µM) to inhibit responses mediated by 5-HT1, 5-HT2 and 5-HT3 receptors. Tyrode solution was maintained at 37°C and ventilated with a mixed gas of O2 (95%) and CO2 (5%). The contraction was isotonically measured via isotonic transducer. After an equilibrium period of about 30 minutes, the contraction by methacholine (30 µM) was measured two times at 15 minute intervals. Twenty minutes later, Y-36912 was added into the bath and the contraction was measured in the presence of a solvent or 1-methyl-1H-indole-3-carboxylic acid · 1-(2-methylsulfonylaminoethyl)-pyperidin-4-ylmethyl ester (hereinafter to be referred to as GR113808, 10nM), which is 5-HT4 receptor antagonist. The time of pretreatment with the solvent or GR113808 was 10 minutes. To avoid tachyphylaxis, the contraction induced by one concentration per preparation was measured. The contraction in the presence of a solvent or GR113803 was measured using a preparation from the same animal. The contraction effect of Y-36912 was measured as a percentage of responses to the second contraction by methacholine. […]

SD rats [2] = experiment: toxicity testing, single oral dose in rats; assay type: in vivo; conditions: four female SD rats, 750 mg/kg
Protocol: There was no death when four female SD rats were administered orally with Y-36912 at a dose of 750 mg/kg.

guinea pig = experiment: promotion of transit in large intestine in guinea pig; assay type: in vivo; conditions: guinea pigs; for Ratio of transit in large intestine (%): Evans blue, 1 hour, Mean ± S.E.; for Promotion (%) of transit in large intestine: versus vehicle
Protocol: Male Hartley guinea pigs were subjected to laparotomy under ether anesthesia, and a silicone tube was inserted into the beginning of ascending colon and fixed there. The other end was passed under the skin to be exposed from the back and sutured. At day 5 postoperation, Y-36912 was administered orally and Evans blue solution was injected into the colon through the silicon tube. One hour later, the large intestine was removed, and the entire length of the large intestine and the length of the transit of the Evans blue solution were measured. Evans blue transit ratio relative to the entire length of the large intestine (100 %) was calculated.

mice = experiment: stimulation of defecation in mice; assay type: in vivo; conditions: for Number (of feces) / Wet weight (of feces): 2 hours, Mean ± S.E.; for Promotion(%) of number of feces / Promotion(%) of wet weight of feces: versus vehicle
Protocol: Male ICR mice were subcutaneously administered with Y-36912 after adaptation to experimental surroundings for thirty minutes. The number and wet weight of feces excreted in 2 hours from immediately after administration were measured.

5-HT3 receptor = target: T1, 5-HT3 receptor (Rattus norvegicus, UniProt P35563); experiment: 5-HT3 receptor binding test; conditions: rat cerebral cortex crude synapse membrane, [3H]granisetron 1.0 nM, 25°C; value marked * is IC50, not Ki; read-out: Affinity for receptor 5-HT3 (* shows IC50)
T1 construct: Crude synapse membrane sample was prepared from rat cerebral cortex; from tissue; host or cells: rat cerebral cortex, crude synaptic membranes
T1 sequence (P35563 24-483): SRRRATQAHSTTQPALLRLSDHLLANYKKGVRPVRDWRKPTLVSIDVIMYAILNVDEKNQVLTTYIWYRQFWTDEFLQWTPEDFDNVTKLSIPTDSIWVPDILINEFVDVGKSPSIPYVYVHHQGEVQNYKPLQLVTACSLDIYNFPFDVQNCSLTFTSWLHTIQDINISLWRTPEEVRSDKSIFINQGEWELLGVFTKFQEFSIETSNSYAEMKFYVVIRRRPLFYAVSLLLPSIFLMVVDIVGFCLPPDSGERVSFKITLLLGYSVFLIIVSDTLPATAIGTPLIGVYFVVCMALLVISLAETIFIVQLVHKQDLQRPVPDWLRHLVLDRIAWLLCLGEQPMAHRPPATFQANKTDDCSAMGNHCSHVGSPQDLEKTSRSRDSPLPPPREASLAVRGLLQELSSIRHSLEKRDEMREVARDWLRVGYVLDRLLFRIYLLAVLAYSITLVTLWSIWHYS
Protocol: According to the method of Nelson and Thomas [Biochemical Pharmacology, vol. 38, pp. 1693-1695 (1989)], a 5-HT3 receptor binding test was run using, as a tracer ligand, endo-1-methyl-N-(9-methyl-9-azabicyclo[3.3.1]non-3-yl)-1H-indazole-3-carboxamide substituted by tritium (hereinafter to be referred to as [^3H]granisetron). Crude synapse membrane sample was prepared from rat cerebral cortex, suspended in 50 mM HEPES buffer (pH 7.4) and used for testing. Y-36912 having several different concentrations and [^3H]granisetron (final concentration 1.0 nM) were added to this suspension and allowed to react at 25°C. Thirty minutes later, the reaction mixture was filtered by suction with cell harvester. The filter was washed with 50 mM Tris buffer (pH 7.4), and the radioactivity on the filter was counted using liquid scintillation counter or β-plate. The non-specific binding was determined in the presence of 1 µM tropisetron. The concentration of Y-36912 necessary for 50% inhibition (IC50) was determined from graph and converted to binding inhibition constant (Ki value).

5-HT4 receptor = target: T2, 5-HT4 receptor (Cavia porcellus, UniProt O70528); experiment: 5-HT4 receptor binding test; conditions: guinea pig striatum crude synapse membrane, [3H]GR113808 0.1 nM, 37°C; read-out: Affinity for receptor (Ki value, nM) 5-HT4
T2 construct: Crude synapse membrane sample was prepared from guinea pig striatum; from tissue; host or cells: guinea pig striatum, crude synaptic membranes
Protocol: According to the method of C.J. Grossman et al. [British Journal of Pharmacology, vol. 109, pp. 618-624 (1993)1, a 5-HT4 receptor binding test was run using, as a tracer ligand, 1-methyl-1H-indole-3-carboxylic acid · 1-(2-methylsulfonylaminoethyl)-piperidin-4-ylmethyl ester substituted by tritium (hereinafter to be referred to as [^3H]GR113808). Crude synapse membrane sample was prepared from guinea pig striatum, suspended in 50 mM HEPES buffer (pH 7.4) and used for testing. Y-36912 having several different concentrations and [^3H]GR113808 (final concentration 0.1 nM) were added to this suspension and allowed to react at 37°C. Thirty minutes later, the reaction mixture was filtered by suction with cell harvester. The filter was washed with 50 mM HEPES buffer, and the radioactivity on the filter was counted by liquid scintillation counter. The non-specific binding was determined in the presence of 1µM GR113808. The concentration of Y-36912 necessary for 50% inhibition (IC50) was determined from graph and convened to binding inhibition constant (Ki value).

dogs = experiment: promotion of postprandial gastrointestinal motility in dogs without anesthesia; assay type: in vivo; conditions: for Difference of motility index (g·min) Colon / Difference of motility index (g·min) Stomach: Mean ± S.E.; for minimal effective dose: Canis lupus familiaris, iv
Protocol: According to the method of Ito et al. [Journal of Smooth Muscle Research, vol. 13, pp. 33-43 (1976)], male and female adult mongrel dogs were subjected to laparotomy under pentobarbital anesthesia, and force transducer was sutured to the serous membrane of various sites of gastrointestinal tract in the direction of circular muscle. After about two weeks' recovery period, postprandial gastrointestinal motility was measured in vigilance. The results are shown in Table 3 as the difference in motility index (g·min) between before and after administration of Y-36912. Y-36912 was administered intravenously.

SD rats [3] = experiment: toxicity testing, repeated administration for 10 days in rats; assay type: in vivo; conditions: female and male SD rats, repeated 30 mg/kg for 10 days
[4] = evaluation of bioavailability in rats; assay type: in vivo; conditions: rat, po; female SD rats, 3 mg/kg i.v. and 30 mg/kg p.o., from plasma AUC
Protocol: Female SD rats (4 per group) were administered with 3 mg/kg (i.v.) and 30 mg/kg (p.o.) of Y-36912. The blood was taken with the passage of time, and the concentration of the drug in plasma was measured with high performance liquid chromatography. […] In the formula, AUC means area under the plasma concentration-time curve. (AUC by oral administration)/(AUC by intravenous administration)X(Dose of intravenous administration)/(Dose of oral administration)X 100(%) [formula]

[5] = measurement of absorption by small intestine in rat; assay type: in vivo; conditions: small intestine loop, 5 mg/kg, male SD rats, intestinal loop, 5 mg/10 ml in 5% glucose, 10 ml/kg, read-out: absorption (absorption ratio by small intestine loop)
Protocol: Male SD rats (3 per group) fasted overnight were subjected to laparotomy under ether anesthesia, and the upper part of small intestine was ligated to form a loop (15-20 cm in length). The drug was dissolved in 5% glucose to the drug concentration of 5 mg/10 ml, and 10 ml/kg thereof was injected into the loop. At 2 hours from the drug injection, the loop was removed, washed with 100 ml of 0.1 N hydrochloric acid-methanol (3:7), and the drug concentration was determined by high performance liquid chromatography. The absorption ratio was calculated according to the following formula. The absorption of Y-36912 was 60.5±13.7 % (Injected amount of drug (mg) - drug concentration in loop (mg/ml) x 100 (ml))/(Injected amount of drug (mg))x 100(%) [formula]

rats = experiment: promotion of gastric emptying in rats; assay type: in vivo; conditions: for Number of pellets (remaining in stomach): female Wistar rats, 1 hour after pellets, Mean ± S.E.; for Promotion (%) of gastric emptying: versus vehicle
Description: Barium pellets (ca. 1 mm diameter) coated with polystyrene was intragastrically administered to female Wistar rats. One hour later, stomach was removed, and the remaining pellets were counted. Y-36912 was orally administered one hour before administration of the pellets.

isolated guinea pig ascending colon, sequence (O70528 whole entry): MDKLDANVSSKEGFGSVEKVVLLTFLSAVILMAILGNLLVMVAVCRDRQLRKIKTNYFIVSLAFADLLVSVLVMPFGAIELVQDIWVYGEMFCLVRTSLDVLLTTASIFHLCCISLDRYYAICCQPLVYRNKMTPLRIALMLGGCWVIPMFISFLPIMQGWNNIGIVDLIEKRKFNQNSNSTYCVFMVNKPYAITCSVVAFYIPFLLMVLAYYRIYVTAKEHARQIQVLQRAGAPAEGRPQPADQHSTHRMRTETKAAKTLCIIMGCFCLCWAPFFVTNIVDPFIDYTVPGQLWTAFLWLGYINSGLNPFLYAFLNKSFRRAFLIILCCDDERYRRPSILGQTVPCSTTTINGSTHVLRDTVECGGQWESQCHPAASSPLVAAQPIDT
T2 sequence (O70528 whole entry): as above

pKB, antagonism of GR113808 to contraction of Y-36912 ([1]; GR113808 10 nM, 10 minutes pretreatment, agonist Y-36912): 8.8
SMILES: Cn1cc(C(=O)OCC2CCN(CCNS(C)(=O)=O)CC2)c2ccccc21 [GR113808, 1-methyl-1H-indole-3-carboxylic acid · 1-(2-methylsulfonylaminoethyl)-pyperidin-4-ylmethyl ester, reference compound]

SMILES: COc1cc(N)c(Cl)cc1C(=O)NCC1CCN(CCCS(=O)(=O)Cc2ccccc2)CC1 [Y-36912, 4-amino-5-chloro-2-methoxy-N-((1-(3-benzylsulfonylpropyl)piperidin-4-yl)methyl)benzamide]
death (SD rats [2]): no death
Ratio of transit in large intestine (%) (guinea pig; 0.1 mg/kg p.o.): 57.0 ± 7.0%
Promotion (%) of transit in large intestine (guinea pig; 0.1 mg/kg p.o.): 9%
Ratio of transit in large intestine (%) (guinea pig; 0.3 mg/kg p.o.): 70.9 ± 7.9%
Promotion (%) of transit in large intestine (guinea pig; 0.3 mg/kg p.o.): 35%
Ratio of transit in large intestine (%) (guinea pig; 1 mg/kg p.o.): 77.2 ± 6.4 %
Promotion (%) of transit in large intestine (guinea pig; 1 mg/kg p.o.): 47%
Ratio of transit in large intestine (%) (guinea pig; 3 mg/kg p.o.): 80.1 ± 5.8 %
Promotion (%) of transit in large intestine (guinea pig; 3 mg/kg p.o.): 53%
minimal effective dose (guinea pig; Cavia porcellus, po, 1 h, p.o., read-out: dose that significantly accelerated transit in large intestine): ≥ 1 mg/kg
Number (of feces) (mice; 0.03 mg/kg s.c): 5.4 ± 0.7
Wet weight (of feces) (mice; 0.03 mg/kg s.c): 78.2 ± 8.6
Promotion(%) of number of feces (mice; 0.03 mg/kg s.c): 59%
Promotion(%) of wet weight of feces (mice; 0.03 mg/kg s.c): 38%
Number (of feces) (mice; 0.1 mg/kg s.c): 6.5 ± 0.8
Wet weight (of feces) (mice; 0.1 mg/kg s.c): 95.7 ± 10.6
Promotion(%) of number of feces (mice; 0.1 mg/kg s.c): 91%
Promotion(%) of wet weight of feces (mice; 0.1 mg/kg s.c): 69%
Number (of feces) (mice; 0.3 mg/kg s.c): 6.2 ± 0.8
Wet weight (of feces) (mice; 0.3 mg/kg s.c): 94.7 ± 10.3
Promotion(%) of number of feces (mice; 0.3 mg/kg s.c): 82%
Promotion(%) of wet weight of feces (mice; 0.3 mg/kg s.c): 68%
Number (of feces) (mice; 1 mg/kg s.c): 5.4 ± 0.5
Wet weight (of feces) (mice; 1 mg/kg s.c): 97.7 ± 12.5
Promotion(%) of number of feces (mice; 1 mg/kg s.c): 59%
Promotion(%) of wet weight of feces (mice; 1 mg/kg s.c): 73%
minimal effective dose (mice; Mus musculus, sc, 2 h, s.c., read-out: dose showing significant promotion of defecation): ≥ 0.1 mg/kg
IC50 (5-HT3 receptor): > 1000 nM
EC50 ([1]; longitudinal muscle, methysergide 1 µM and granisetron 1 µM present, relative to methacholine 30 µM contraction, read-out: Contraction effect on the isolated ascending colon (EC50 value)): 10.8 nM
Ki (5-HT4 receptor): 1.5 nM
Difference of motility index (g·min) Colon (dogs; 0.01 mg/kg i.v.): 27.1 ± 6.8 g·min
Difference of motility index (g·min) Stomach (dogs; 0.01 mg/kg i.v.): 41.3 ± 35.4 g·min
Difference of motility index (g·min) Colon (dogs; 0.03 mg/kg i.v.): 28.3 ± 8.5 g·min
Difference of motility index (g·min) Stomach (dogs; 0.03 mg/kg i.v.): 65.1 ± 38.1 g·min
Difference of motility index (g·min) Colon (dogs; 0.1 mg/kg i.v.): 58.2 ± 11.9 g·min
Difference of motility index (g·min) Stomach (dogs; 0.1 mg/kg i.v.): 60.5 ± 18.1 g·min
minimal effective dose (dogs; read-out: dose that increased colonic (lower gastrointestinal) motility): 0.1 mg/kg
minimal effective dose (dogs; read-out: dose that increased gastric (upper gastrointestinal) motility): ≥ 0.03 mg/kg
death (SD rats [3]): no animal died
bioavailability [4]: 85.2%
Fa at 2 h [5]: 60.5 ± 13.7%
Number of pellets (remaining in stomach) (rats; 0.1 mg/kg p.o.): 21.1 ± 2.8
Promotion (%) of gastric emptying (rats; 0.1 mg/kg p.o., rats): 25%
Number of pellets (remaining in stomach) (rats; 0.3 mg/kg p.o.): 18.8 ± 3.0
Promotion (%) of gastric emptying (rats; 0.3 mg/kg p.o., rats): 33%
Number of pellets (remaining in stomach) (rats; 1 mg/kg p.o.): 19.5 ± 3.1
Promotion (%) of gastric emptying (rats; 1 mg/kg p.o., rats): 31%
Number of pellets (remaining in stomach) (rats; 3 mg/kg p.o.): 13.4 ± 1.8
Promotion (%) of gastric emptying (rats; 3 mg/kg p.o., rats): 52%
effect on gastric emptying (rats; doses of 0.3 mg/kg and 3 mg/kg p.o., rats): significantly accelerated gastric emptying
